melting point	Compound
277.3 to 277.9 °C	COc1cccc([C@H]2O[C@H](CC(=O)Nc3nc(C(=O)O)cs3)C(=O)N(CC(C)(C)CO)c3ccc(Cl)cc32)c1OC [Example 142, 2-[[[(3R,5S)-7-Chloro-5-(2,3-dimethoxyphenyl)-1-(3-hydroxy-2,2-dimethylpropyl)-2-oxo-1,2,3,5-tetrahydro-4,1-benzoxazepin-3-yl]acetyl]amino]-1,3-thiazole-4-carboxylic acid]
239 to 241 °C	COc1cccc([C@H]2O[C@H](CC(=O)Nc3ncc(CC(=O)O)s3)C(=O)N(CC(C)(C)CO)c3ccc(Cl)cc32)c1OC [Example 143, [2-[[[(3R,5S)-7-Chloro-5-(2,3-dimethoxyphenyl)-1-(3-hydroxy-2,2-dimethylpropyl)-2-oxo-1,2,3,5-tetrahydro-4,1-benzoxazepin-3-yl]acetyl]amino]-1,3-thiazol-5-yl]acetic acid]
203 to 205 °C	COc1cccc([C@H]2O[C@H](CC(=O)Nc3ncc(CCC(=O)O)s3)C(=O)N(CC(C)(C)CO)c3ccc(Cl)cc32)c1OC [Example 144, 3-[2-[[[(3R,5S)-7-Chloro-5-(2,3-dimethoxyphenyl)-1-(3-hydroxy-2,2-dimethylpropyl)-2-oxo-1,2,3,5-tetrahydro-4,1-benzoxazepin-3-yl]acetyl]amino]-1,3-thiazol-5-yl]propionic Acid]
251 to 252 °C	COc1cccc([C@H]2O[C@H](CC(=O)Nc3nc(C)c(C(=O)O)s3)C(=O)N(CC(C)(C)CO)c3ccc(Cl)cc32)c1OC [Example 145, 2-[[[(3R,5S)-7-Chloro-5-(2,3-dimethoxyphenyl)-1-(3-hydroxy-2,2-dimethylpropyl)-2-oxo-1,2,3,5-tetrahydro-4,1-benzoxazepin-3-yl]acetyl]amino]-4-methyl-1,3-thiazole-5-carboxylic acid]
187.9 to 188.9 °C	COc1cccc([C@H]2O[C@H](CC(=O)Nc3ccc4[nH]c(SCC(=O)O)nc4c3)C(=O)N(CC(C)(C)CO)c3ccc(Cl)cc32)c1OC [Example 148, 2-[[5-[[[(3R,5S)-7-Chloro-5-(2,3-dimethoxyphenyl)-1-(3-hydroxy-2,2-dimethylpropyl)-2-oxo-1,2,3,5-tetrahydro-4,1-benzoxazepin-3-yl]acetyl]amino]-1H-benzimidazol-2-yl]sulfanyl]acetic acid]
175.4 to 175.5 °C	COc1cccc([C@H]2O[C@H](CC(=O)Nc3cc(OC)c4oc(C(=O)O)cc4c3)C(=O)N(CC(C)(C)CO)c3ccc(Cl)cc32)c1OC [Example 149, 5-[[[(3R,5S)-5-(2,3-dimethoxyphenyl)-7-chloro-1-(3-hydroxy-2,2-dimethylpropyl)-2-oxo-1,2,3,5-tetrahydro-4,1-benzoxazepin-3-yl]acetyl]amino]-7-methoxy-1-benzofran-2-carboxylic acid]
181 to 181.5 °C	CCOc1cc(NC(=O)C[C@H]2O[C@H](c3cccc(OC)c3OC)c3cc(Cl)ccc3N(CC(C)(C)CO)C2=O)cc2cc(C(=O)O)oc12 [Example 150, 5-[[[(3R,5S)-7-chloro-5-(2,3-dimethoxyphenyl)-1-(3-hydroxy-2,2-dimethylpropyl)-2-oxo-1,2,3,5-tetrahydro-4,1-benzoxazepin-3-yl]acetyl]amino]-7-ethoxy-1-benzofuran-2-carboxylic acid]
188.6 to 189.7 °C	COc1cccc([C@H]2O[C@H](CC(=O)Nc3cc(OC(C)C)c4oc(C(=O)O)cc4c3)C(=O)N(CC(C)(C)CO)c3ccc(Cl)cc32)c1OC [Example 152, 5-[[[(3R,5S)-7-Chloro-5-(2,3-dimethoxyphenyl)-1-(3-hydroxy-2,2-dimethylpropyl)-2-oxo-1,2,3,5-tetrahydro-4,1-benzoxazepin-3-yl]acetyl]amino]-7-[(1-methylethyl)oxy]-1-benzofuran-2-carboxylic acid]
175.4 to 176.3 °C	COc1cccc([C@H]2O[C@H](CC(=O)Nc3ccc4oc(C(=O)O)c(OC)c4c3)C(=O)N(CC(C)(C)CO)c3ccc(Cl)cc32)c1OC [Example 153, 5-[[[(3R,5S)-7-chloro-5-(2,3-dimethoxyphenyl)-7-chloro-1-(3-hydroxy-2,2-dimethylpropyl)-2-oxo-1,2,3,5-tetrahydro-4,1-benzoxazepin-3-yl]acetyl]amino]-3-methoxy-1-benzofuran-2-carboxylic acid]
193 to 195.5 °C	COc1cccc([C@H]2O[C@H](CC(=O)Nc3ccc4oc(C(=O)O)c(OCC(=O)O)c4c3)C(=O)N(CC(C)(C)CO)c3ccc(Cl)cc32)c1OC [Example 155, 5-[[[(3R,5S)-7-chloro-5-(2,3-dimethoxyphenyl)-1-(3-hydroxy-2,2-dimethylpropyl)-2-oxo-1,2,3,5-tetrahydro-4,1-benzoxazepin-3-yl]acetyl]amino]-3-[(carboxymethyl)oxy]-1-benzofuran-2-carboxylic acid]
174.2 to 174.9 °C	COc1cccc([C@H]2O[C@H](CC(=O)Nc3ccc4oc(C(=O)O)c(OC(C)C)c4c3)C(=O)N(CC(C)(C)CO)c3ccc(Cl)cc32)c1OC [Example 156, 5-[[[(3R,5S)-7-chloro-5-(2,3-dimethoxyphenyl)-1-(3-hydroxy-2,2-dimethylpropyl)-2-oxo-1,2,3,5-tetrahydro-4,1-benzoxazepin-3-yl]acetyl]amino]-3-[(1-methylethyl)oxy]-1-benzofuran-2-carboxylic acid]
200.5 to 200.6 °C	COc1cccc([C@H]2O[C@H](CC(=O)Nc3ccc4[nH]c(C(=O)O)cc4c3)C(=O)N(CC(C)(C)CO)c3ccc(Cl)cc32)c1OC [Example 157]
207 to 209 °C	COc1cccc([C@H]2O[C@H](CC(=O)Nc3ccc4oc(CCC(=O)O)cc4c3)C(=O)N(CC(C)(C)CO)c3ccc(Cl)cc32)c1OC [Example 159, 3-[5-[[[(3R,5S)-7-Chloro-5-(2,3-dimethoxyphenyl)-1-(3-hydroxy-2,2-dimethylpropyl)-2-oxo-1,2,3,5-tetrahydro-4,1-benzoxazepin-3-yl]acetyl]amino]-1-benzofuran-2-yl]propanoic acid]
175 to 176.5 °C	COc1cccc([C@H]2O[C@H](CC(=O)Nc3ccc4oc(C(=O)O)c(C)c4c3)C(=O)N(CC(C)(C)CO)c3ccc(Cl)cc32)c1OC [Example 160, 5-[[[(3R,5S)-7-Chloro-5-(2,3-dimethoxyphenyl)-1-(3-hydroxy-2,2-dimethylpropyl)-2-oxo-1,2,3,5-tetrahydro-4,1-benzoxazepin-3-yl]acetyl]amino]-3-methyl-1-benzofuran-2-carboxylic acid]
180.7 to 182 °C	COc1cccc([C@H]2O[C@H](CC(=O)Nc3cc(C)c4oc(C(=O)O)cc4c3)C(=O)N(CC(C)(C)CO)c3ccc(Cl)cc32)c1OC [Example 161, 5-[[[(3R,5S)-7-Chloro-5-(2,3-dimethoxyphenyl)-1-(3-hydroxy-2,2-dimethylpropyl)-2-oxo-1,2,3,5-tetrahydro-4,1-benzoxazepin-3-yl]acetyl]amino]-7-methyl-1-benzofuran-2-carboxylic acid]
188 to 189 °C	CCc1cc(NC(=O)C[C@H]2O[C@H](c3cccc(OC)c3OC)c3cc(Cl)ccc3N(CC(C)(C)CO)C2=O)cc2cc(C(=O)O)oc12 [Example 162, 5-[[2-[(3R,5S)-7-Chloro-5-(2,3-dimethoxyphenyl)-1-(3-hydroxy-2,2-dimethylpropyl)-2-oxo-1,2,3,5-tetrahydro-4,1-benzoxazepin-3-yl]acetyl]amino]-7-ethyl-1-benzofuran-2-carboxylic acid]
198.5 to 199.5 °C	CCCc1cc(NC(=O)C[C@H]2O[C@H](c3cccc(OC)c3OC)c3cc(Cl)ccc3N(CC(C)(C)CO)C2=O)cc2cc(C(=O)O)oc12 [Example 163, 5-[[[(3R,5S)-7-Chloro-5-(2,3-dimethoxyphenyl)-1-(3-hydroxy-2,2-dimethylpropyl)-2-oxo-1,2,3,5-tetrahydro-4,1-benzoxazepin-3-yl]acetyl]amino]-7-propyl-1-benzofuran-2-carboxylic acid]
246 to 248 °C	COc1cccc([C@H]2O[C@H](CC(=O)Nc3c(C)c(C)c4oc(C(=O)O)cc4c3C)C(=O)N(CC(C)(C)CO)c3ccc(Cl)cc32)c1OC [Example 164, 5-[[[(3R,5S)-7-Chloro-5-(2,3-dimethoxyphenyl)-1-(3-hydroxy-2,2-dimethylpropyl)-2-oxo-1,2,3,5-tetrahydro-4,1-benzoxazepin-3-yl]acetyl]amino]-4,6,7-trimethyl-1-benzofuran-2-carboxylic acid]
179.2 to 180.2 °C	COc1cccc([C@H]2O[C@H](CC(=O)Nc3cc(Cl)cc4cc(C(=O)O)oc34)C(=O)N(CC(C)(C)CO)c3ccc(Cl)cc32)c1OC [Example 165, 7-[[[(3R,5S)-7-Chloro-5-(2,3-dimethoxyphenyl)-1-(3-hydroxy-2,2-dimethylpropyl)-2-oxo-1,2,3,5-tetrahydro-5,1-benzoxazepin-3-yl]acetyl]amino]-5-chloro-1-benzofuran-2-carboxylic acid]

— patent publication US20030078251A1, “Benzoxazepinones and their use as squalene synthase inhibitors” (priority 2000, published 2003)
